Reference: article PMC7248311, “Bisphenol A Diglycidyl Ether (BADGE) and Bisphenol Analogs, but Not Bisphenol A (BPA), Activate the CatSper Ca^2+ Channel in Human Sperm” (Frontiers in Endocrinology, 2020)
“Also recorded” adds a separate entry of the source. Like-named read-outs stand apart in the source and are kept apart here.

Key:
[1] = system: human sperm cells; experiment: Ca^2+ fluorimetric assay: Ca^2+ signals ([Ca^2+]i) induced in human sperm cells; type: cell-based; settings: for Induction of Ca^2+ signals in human sperm cells (in words): 10 μM; for EC50 / activation at 10 µM: Homo sapiens, Sperm; for EC50: read-out: EC50, μM Mean; for activation at 10 µM: read-out: Mean relative peak Ca^2+ signal at 10 μM (in %) (n = 3); for EC05, μM Mean: lowest effective dose from dose response of induced Ca^2+ signals
Description: (§1) Changes in the free intracellular Ca^2+ concentration [Ca^2+]i in human sperm cells were measured in 384 multi-well-plates in a fluorescence plate reader (Fluostar Omega, BMG Labtech, Germany) at 30°C as described in Rehfeld et al. ([41]). Briefly, sperm cells were incubated with the fluorescent Ca^2+ indicator Fluo-4, AM (10 μM) for 45 min at 37°C. […] Fluorescence was recorded before and after addition of 25 μL bisphenol solutions, negative control (buffer with vehicle), positive control (progesterone, 5 μM final concentration) manually with an electronic multichannel pipette to duplicate wells. […] For the inhibition studies mean basal fluorescence (F0) was defined as the last 5 cycles before addition of 100 nM progesterone.
The bisphenols were screened at a concentration of 10 μM, along a positive control (progesterone, 5 μM), and negative control (HTF^+ with vehicle). Changes in [Ca^2+]i were recorded for 4 min after addition of the chemicals and controls. We calculated the relative peak Ca^2+ signal in % induced by the bisphenols, by dividing the peak Ca^2+ signal with that of the paired positive control, in order to compare data from the different experiments.

[2] = system: progesterone-induced Ca^2+ signals in human sperm cells; experiment: Inhibition of Ca^2+ signals induced by 100 nM progesterone after 5 min pre-incubation with bisphenols; type: cell-based; settings: for Dose-dependent inhibition of progesterone-induced Ca^2+ signals (in words): 100 nM progesterone, 5 min pre-incubation; for IC50: Homo sapiens, Sperm, read-out: IC50, μM Mean
Description: as §1
We compared the amplitude of the Ca^2+ signals induced by 100 nM of progesterone in human sperm cells after 5 min of pre-incubation with serially diluted doses of the bisphenols or a negative buffer control.

[3] = system: G protein-coupled estrogen receptor (GPER); design: method as in PMID 28858478; settings: low doses ref 46; cited from earlier work
[4] = system: human sperm; design: method as in PMID 27686954; settings: cited from earlier work
[5] = system: human sperm; design: method as in doi:10.20883/jms.2016.5; settings: 0.1 nM−1 μM ref 40; cited from earlier work
[6] = system: voltage-activated Ca^2+ channels; settings: cited from earlier work
[7] = system: human sperm cells; settings: cited from earlier work
[8] = system: capacitated human sperm cells; experiment: Image cytometry-based acrosome reaction assay; type: cell-based; settings: 10 μM, 30 min, vs negative control
Description: The amount of live acrosome reacted sperm cells was measured using an image cytometry-based acrosome reaction assay, as described in Rehfeld et al. ([41]). Briefly, capacitated sperm cells (10 × 10^6/ml) were divided into equal aliquots and mixed thoroughly with a staining solution containing 5 μg/mL FITC-PSA, 0.5 μg/mL PI, and 10 μg/mL Hoechst in HTF^+. Bisphenols (10 μM) were added to the aliquots of stained capacitated sperm cells together with the positive controls, ionomycin (10 μM), and progesterone (10 μM). As a negative control, HTF^+ with 0.2% DMSO was used. After addition of bisphenols and controls the samples were mixed well and placed on a gentle mixing heating plate at 37°C. After 30 min of incubation, the aliquots were mixed thoroughly by pipetting and a 50 μL sample was drawn and added to a 100 μL aliquot of an immobilizing solution containing 0.6 M NaHCO3 and 0.37% (v/v) formaldehyde in distilled water. This solution was mixed well by pipetting, immediately loaded in an A2 slide (ChemoMetec A/S, Allerød, Denmark) and assessed in a NC-3000 image cytometer (ChemoMetec A/S, Allerød, Denmark). The following protocol was applied: 2-color flexicyte with Hoechst defining the sperm cells to be analyzed; Ex475-Em560/35: exposure time 3,000 ms, Ex530-Em675/75: exposure time 500 ms, with a minimum of 5,000 analyzed cells (positive for Hoechst). […]

[9] = system: human sperm cells; experiment: Sperm penetration into a viscous medium (modified Kremer's test, methylcellulose); type: cell-based; settings: 10 μM, 60 min, counted at 2 cm, vs negative control
Description: Assessment of sperm penetration was done using sperm penetration tests with 4,000 cP methylcellulose (1% w/v) as an artificial viscous medium as described in Alasmari et al. ([43]). The viscous methylcellulose (1% w/v) medium was prepared in HTF^+ by adding 10 mg methylcellulose per mL HTF^+ and mixing it by rotation overnight at RT. The viscous methylcellulose (1% w/v) medium was introduced into glass capillary tubes [borosilicate microslides (VitroTubes) 0.20 mm × 2.0 mm × 10 cm (VitroCom, USA)] by capillary forces, by placing the glass tubes vertically in a 1.5 mL microfuge tube with 750 μL methylcellulose (1% w/v) for 15min. Care was taken to prevent air bubbles from entering the glass tubes. The end of the glass tube that was placed in the microfuge tube was sealed with wax (Hounisens laboratorieudstyr A/S, Denmark). […] The number of sperm cells were counted at 2 cm distance from the opening of the tube, with two fields in each of four planes counted. Throughout the study, all samples were counted by the same observer. Only experiments with a positive increment in cell density at 2 cm for the positive control compared to the negative control and with more than 40 sperm cells counted at 2 cm for the positive control were used for the analysis.

[10] = system: CatSper; experiment: Induced Ca^2+ signals in absence or presence of CatSper inhibitor RU1968; settings: RU1968 30 μM; bisphenols 5–50 μM, progesterone 5 μM; n = 3
[11] = bisphenol 10 μM, peak Ca^2+ signal divided by that of progesterone 5 μM in the same experiment
[12] = dose response of induced Ca^2+ signals, n = 3–7
[13] = Ca^2+ signals induced by 100 nM progesterone after pre-incubation, n = 3–5

## CC(C)(c1ccc(OCC2CO2)cc1)c1ccc(OCC2CO2)cc1 (stereo not shown) [BADGE, Bisphenol A diglycidyl ether]
[1]
  Induction of Ca^2+ signals in human sperm cells (in words): can induce Ca^2+ signals
  EC50: 8.18 µM
  activation at 10 µM: 14.8%
[1]; n = 3–7
  EC05, μM Mean: 1.82 µM
[2]
  Dose-dependent inhibition of progesterone-induced Ca^2+ signals (in words): dose-dependently inhibit

## O=S(=O)(c1ccc(O)cc1)c1ccc(O)cc1 [BPS, Bisphenol S]
[3]
  Induction of Ca^2+ signals in SKBR3 cells via GPER: induce Ca^2+ signals
[1]
  Induction of Ca^2+ signals in human sperm cells (in words): induced no Ca^2+ signals
[1]; [11]
  activation at 10 µM: 4.41%

## Oc1ccc(C(c2ccccc2)(c2ccccc2)c2ccc(O)cc2)cc1 [BPBP, Bisphenol BP]
[1]
  Induction of Ca^2+ signals in human sperm cells (in words): can induce Ca^2+ signals
[1]; [11]
  activation at 10 µM: 9.09%
[1]; [12]
  EC50: 0.79 µM
[1]; n = 3–7
  EC05, μM Mean: 0.38 µM
[2]
  Dose-dependent inhibition of progesterone-induced Ca^2+ signals (in words): all bisphenols, except BPBP, were able to dose dependently inhibit

## Oc1ccc(Cc2ccc(O)cc2)cc1 [BPF, Bisphenol F]
[3]
  Induction of Ca^2+ signals in SKBR3 cells via GPER: induce Ca^2+ signals
[1]
  Induction of Ca^2+ signals in human sperm cells (in words): induced no Ca^2+ signals
[1]; [11]
  activation at 10 µM: 5.09%

## CC(C)(c1ccc(O)cc1)c1ccc(O)cc1 [BPA, Bisphenol A]
[3]
  Induction of Ca^2+ signals in SKBR3 cells via GPER: induce Ca^2+ signals
[1]
  Induction of Ca^2+ signals in human sperm cells (in words): induced no Ca^2+ signals; also recorded: do not induce Ca^2+ signals
[1]; [11]
  activation at 10 µM: 1.44%
[4]
  Dose inducing mitochondrial dysfunction in human sperm: ≥ 300 µM
[5]
  Effect on human sperm motility parameters: could affect human sperm motility parameters
[6]
  Activation of other voltage-activated Ca^2+ channels: activate
  Inhibition of other voltage-activated Ca^2+ channels: inhibit
[7]; 1 μM ref 40
  Effect on [Ca^2+]i in single human sperm cells: rapid, transient increase
[7]; 0.1, 1, and 10 μM ref 34
  Effect on [Ca^2+]i in human sperm cells: did not affect

## CCC(C)(c1ccc(O)cc1)c1ccc(O)cc1 [BPB, Bisphenol B]
[3]
  Induction of Ca^2+ signals in SKBR3 cells via GPER: induce Ca^2+ signals
[1]
  Induction of Ca^2+ signals in human sperm cells (in words): can induce Ca^2+ signals
[1]; [11]
  activation at 10 µM: 11.8%
[1]; [12]
  EC50: 14.9 µM
[1]; n = 3–7
  EC05, μM Mean: 2.37 µM
[2]
  Dose-dependent inhibition of progesterone-induced Ca^2+ signals (in words): dose-dependently inhibit
[2]; [13]
  IC50: 39.9 µM

## CC(C)c1cc(C(C)(C)c2ccc(O)c(C(C)C)c2)ccc1O [BPG, Bisphenol G]
[8]
  Live acrosome reacted sperm cells: significant increase
[1]
  Induction of Ca^2+ signals in human sperm cells (in words): can induce Ca^2+ signals
[1]; [11]
  activation at 10 µM: 109%
[1]; [12]
  EC50: 1.27 µM
[1]; n = 3–7
  EC05, μM Mean: 0.18 µM
[9]
  Numbers of human sperm cells penetrating into a viscous medium: significant increase
[2]
  Dose-dependent inhibition of progesterone-induced Ca^2+ signals (in words): dose-dependently inhibit
[2]; [13]
  IC50: 1.86 µM

## Cc1cc(C(C)(C)c2ccc(O)c(C)c2)ccc1O [BPC, Bisphenol C]
[1]
  Induction of Ca^2+ signals in human sperm cells (in words): can induce Ca^2+ signals
[1]; [11]
  activation at 10 µM: 21.7%
[1]; [12]
  EC50: 10.3 µM
[1]; n = 3–7
  EC05, μM Mean: 0.70 µM
[2]
  Dose-dependent inhibition of progesterone-induced Ca^2+ signals (in words): dose-dependently inhibit
[2]; [13]
  IC50: 45.2 µM

## Oc1ccc(C(c2ccc(O)cc2)(C(F)(F)F)C(F)(F)F)cc1 [BPAF, Bisphenol AF]
[8]
  Live acrosome reacted sperm cells: significant increase
[3]
  Induction of Ca^2+ signals in SKBR3 cells via GPER: induce Ca^2+ signals
[1]
  Induction of Ca^2+ signals in human sperm cells (in words): can induce Ca^2+ signals
  EC50: 2.4 µM
  activation at 10 µM: 58%
[1]; n = 3–7
  EC05, μM Mean: 0.36 µM
[9]
  Numbers of human sperm cells penetrating into a viscous medium: significant increase
[2]
  Dose-dependent inhibition of progesterone-induced Ca^2+ signals (in words): dose-dependently inhibit
  IC50: 12.3 µM

## CC(=O)[C@H]1CC[C@H]2[C@@H]3CCC4=CC(=O)CC[C@]4(C)[C@H]3CC[C@]12C [progesterone]
[10]
  Inhibition of the induced Ca^2+ signal in the presence of RU1968: highly inhibited by RU1968

## CC(c1ccc(O)cc1)c1ccc(O)cc1 [BPE, Bisphenol E]
[1]
  Induction of Ca^2+ signals in human sperm cells (in words): induced no Ca^2+ signals
  activation at 10 µM: 5.37%
